Consider 21 compounds from patent US11472791B2 (Incyte Corporation, priority 2019, dated 2022).

The target in the first test is JAK2 (Homo sapiens (Human), UniProt O60674). The test can be described thus: JAK inhibitory activity assay (JAK2). The format is biochemical. As to conditions: 1 mM ATP. How it is done: (§1) Compounds herein were tested for inhibitory activity of JAK targets according to the following in vitro assay described in Park et al., Analytical Biochemistry 1999, 269, 94-104. The catalytic domains of human JAK1 (a.a. 837-1142), Jak2 (a.a. 828-1132) and Jak3 (a.a. 781-1124) with an N-terminal His tag were expressed using baculovirus in insect cells and purified. The catalytic activity of JAK1 and JAK2 was assayed by measuring the phosphorylation of a biotinylated peptide. The phosphorylated peptide was detected by homogenous time resolved fluorescence (HTRF). Each enzyme reaction was carried out with or without test compound (11-point dilution), JAK enzyme, 500 nM peptide, adenosine triphosphate (ATP; 1 mM), and 2.0% dimethyl sulfoxide (DMSO) in assay buffer (50 mM Tris (pH 7.8) buffer, 100 mM NaCl, 5 mM DTT, and 0.1 mg/mL (0.01%) BSA). The peptide substrate (Biotin-[…]) was custom synthesized by Biosource International. Reactions were carried out at room temperature for 1 hour and then stopped with 10 μL 45 mM EDTA, 200 nM SA-APC, 4 nM Eu-Py20 in assay buffer (Perkin Elmer, Boston, Mass.). After incubation for 30 minutes at room temperature, the HTRF signal was measured on a PheraStar plate reader.
Chain of JAK2 (O60674 828-1132): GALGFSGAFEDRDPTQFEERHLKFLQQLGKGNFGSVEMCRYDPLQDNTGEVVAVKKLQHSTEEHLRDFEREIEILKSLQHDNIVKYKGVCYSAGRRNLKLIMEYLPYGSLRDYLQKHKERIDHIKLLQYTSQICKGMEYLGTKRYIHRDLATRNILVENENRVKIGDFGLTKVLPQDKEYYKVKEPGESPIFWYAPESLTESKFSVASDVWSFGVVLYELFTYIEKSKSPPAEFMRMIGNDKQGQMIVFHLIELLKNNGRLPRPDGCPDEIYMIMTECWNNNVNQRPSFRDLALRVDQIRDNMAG
Consider `Cn1cc(S(=O)(=O)N2CCC(Nc3ncc(C(F)(F)F)c(-c4cnn(CC(F)(F)F)c4)n3)CC2)cn1` [Example 1, N-(1-((1-Methyl-1H-pyrazol-4-yl)sulfonyl)piperidin-4-yl)-4-(1-(2,2,2-trifluoroethyl)-1H-pyrazol-4-yl)-5-(trifluoromethyl)pyrimidin-2-amine], for which the IC50 – broadly, the point on the concentration scale where inhibition reaches its midpoint – was not below 10000 nM.

A further test has as its target human JAK1 (Homo sapiens, UniProt P23458). In words: JAK inhibitory activity assay (JAK1). The format is biochemical. As to conditions: 1 mM ATP. How it is done:
as §1
Regarding `Cn1cc(S(=O)(=O)N2CCC(Nc3ncc(C(F)(F)F)c(-c4cnn(CC(F)(F)F)c4)n3)CC2)cn1` [Example 1, N-(1-((1-Methyl-1H-pyrazol-4-yl)sulfonyl)piperidin-4-yl)-4-(1-(2,2,2-trifluoroethyl)-1H-pyrazol-4-yl)-5-(trifluoromethyl)pyrimidin-2-amine], the concentration for half-maximal inhibition (IC50) was not below 10000 nM.

The target of another test is CDK2/Cyclin E1 (Homo sapiens (Human), UniProt P24941). In words: CDK2/Cyclin E1 HTRF enzyme activity assay. The format is biochemical. The note with it: 1 mM ATP. How it is done:
Assays are conducted in white 384-well polystyrene plates in a final reaction volume of 8 μL. […] HTRF signals are read after 1 hour at room temperature on a PHERAstar FS plate reader (BMG Labtech). Data is analyzed with IDBS XLFit and GraphPad Prism 5.0 software using a three or four parameter dose response curve to determine IC50 for each compound.
On the technique in general: Time-resolved FRET reads energy transfer from a long-lived donor to a nearby acceptor.
For the compound `Cn1cc(S(=O)(=O)N2CCC(Nc3ncc(C(F)(F)F)c(-c4cnn(CC(F)(F)F)c4)n3)CC2)cn1` [Example 1, N-(1-((1-Methyl-1H-pyrazol-4-yl)sulfonyl)piperidin-4-yl)-4-(1-(2,2,2-trifluoroethyl)-1H-pyrazol-4-yl)-5-(trifluoromethyl)pyrimidin-2-amine], the IC50 is less than 50 nM.
For the compound `CNCc1ccc(-n2cc(-c3nc(N[C@H]4CCN(S(=O)(=O)c5cn(C)cn5)C[C@H]4C)ncc3C#N)cn2)c(C)n1` [Example 272, 2-(((3R,4S)-3-Methyl-1-((1-methyl-1H-imidazol-4-yl)sulfonyl)piperidin-4-yl)amino)-4-(1-(2-methyl-6-((methylamino)methyl)pyridin-3-yl)-1H-pyrazol-4-yl)pyrimidine-5-carbonitrile], the IC50 is less than 50 nM.
For `CCNCc1ccc(-n2cc(-c3nc(N[C@H]4CCN(S(=O)(=O)c5cn(C)cn5)C[C@H]4C)ncc3C#N)cn2)c(C)n1` [Example 273, 4-(1-(6-((Ethylamino)methyl)-2-methylpyridin-3-yl)-1H-pyrazol-4-yl)-2-(((3R,4S)-3-methyl-1-((1-methyl-1H-imidazol-4-yl)sulfonyl)piperidin-4-yl)amino)pyrimidine-5-carbonitrile], the IC50 was less than 50 nM.
Compound `Cc1nc(CNC(C)C)ccc1-n1cc(-c2nc(NC3CCN(S(=O)(=O)c4cn(C)cn4)CC3)ncc2Cl)cn1` [Example 274, 5-Chloro-4-(1-(6-((isopropylamino)methyl)-2-methylpyridin-3-yl)-1H-pyrazol-4-yl)-N-(1-((1-methyl-1H-imidazol-4-yl)sulfonyl)piperidin-4-yl)pyrimidin-2-amine] yielded a 50% inhibitory concentration (IC50) of less than 50 nM.
For the compound `Cc1nc(CNC(C)C)ccc1-n1cc(-c2nc(NC3CCN(S(=O)(=O)c4cn(C)cn4)CC3)ncc2C(F)(F)F)cn1` [Example 275, 4-(1-(6-((Isopropylamino)methyl)-2-methylpyridin-3-yl)-1H-pyrazol-4-yl)-N-(1-((1-methyl-1H-imidazol-4-yl)sulfonyl)piperidin-4-yl)-5-(trifluoromethyl)pyrimidin-2-amine], the IC50 was less than 50 nM.
On the same count and under the same terms, the result for `Cc1nc(CNC(C)C)ccc1-n1cc(-c2nc(N[C@H]3CCN(S(=O)(=O)c4cn(C)cn4)C[C@H]3C)ncc2C(F)(F)F)cn1` [Example 276, 4-(1-(6-((Isopropylamino)methyl)-2-methylpyridin-3-yl)-1H-pyrazol-4-yl)-N-((3R,4S)-3-methyl-1-((1-methyl-1H-imidazol-4-yl)sulfonyl)piperidin-4-yl)-5-(trifluoromethyl)pyrimidin-2-amine] reads less than 50 nM; that for `Cc1nc(CNC(C)(C)C)ccc1-n1cc(-c2nc(NC3CCN(S(=O)(=O)C4CC4)CC3)ncc2C#N)cn1` [Example 277, 4-(1-(6-((tert-Butylamino)methyl)-2-methylpyridin-3-yl)-1H-pyrazol-4-yl)-2-((1-(cyclopropylsulfonyl)piperidin-4-yl)amino)pyrimidine-5-carbonitrile], less than 50 nM; that for `Cc1nc(CNC(C)C)ccc1-n1cc(-c2nc(N[C@H]3CCN(S(=O)(=O)c4cn(C)cn4)C[C@H]3C)ncc2C#N)cn1` [Example 278, 4-(1-(6-((Isopropylamino)methyl)-2-methylpyridin-3-yl)-1H-pyrazol-4-yl)-2-(((3R,4S)-3-methyl-1-((1-methyl-1H-imidazol-4-yl)sulfonyl)piperidin-4-yl)amino)pyrimidine-5-carbonitrile], less than 50 nM.
The same measure, in the same setting: to `COC(=O)N[C@@H]1CC[C@@H](NCc2ccc(-n3cc(-c4nc(NC5CCN(S(C)(=O)=O)CC5)ncc4C#N)cn3)c(Cl)c2)C1` [Example 279, Methyl ((1R,3R)-3-((3-chloro-4-(4-(5-cyano-2-((1-(methylsulfonyl)piperidin-4-yl)amino)pyrimidin-4-yl)-1H-pyrazol-1-yl)benzyl)amino)cyclopentyl)carbamate] belongs less than 50 nM; to `COC(=O)N[C@H]1CC[C@@H](NCc2ccc(-n3cc(-c4nc(NC5CCN(S(C)(=O)=O)CC5)ncc4C#N)cn3)c(Cl)c2)C1` [Example 280, Methyl ((1S,3R)-3-((3-chloro-4-(4-(5-cyano-2-((1-(methylsulfonyl)piperidin-4-yl)amino)pyrimidin-4-yl)-1H-pyrazol-1-yl)benzyl)amino)cyclopentyl)carbamate], less than 50 nM.
On the same count and under the same terms, the result for `COC(=O)N[C@H]1CCC[C@@H]1NCc1ccc(-n2cc(-c3nc(NC4CCN(S(C)(=O)=O)CC4)ncc3C#N)cn2)c(Cl)c1` [Example 281, Methyl ((1,S,2S)-2-((3-chloro-4-(4-(5-cyano-2-((1-(methylsulfonyl)piperidin-4-yl)amino)pyrimidin-4-yl)-1H-pyrazol-1-yl)benzyl)amino)cyclopentyl)carbamate] reads less than 50 nM; that for `COC(=O)NCC1(NCc2ccc(-n3cc(-c4nc(NC5CCN(S(C)(=O)=O)CC5)ncc4C#N)cn3)c(Cl)c2)CCCC1` [Example 282, Methyl ((1-((3-chloro-4-(4-(5-cyano-2-((1-(methylsulfonyl)piperidin-4-yl)amino)pyrimidin-4-yl)-1H-pyrazol-1-yl)benzyl)amino)cyclopentyl)methyl)carbamate], less than 50 nM.
The compound `C[C@]1(O)CC[C@@H](NCc2ccc(-n3cc(-c4nc(NC5CCN(S(=O)(=O)C6CC6)CC5)ncc4C#N)cn3)c(Cl)c2)CC1` [Example 283, 4-(1-(2-Chloro-4-((((1s,4s)-4-hydroxy-4-methylcyclohexyl)amino)methyl)phenyl)-1H-pyrazol-4-yl)-2-((1-(cyclopropylsulfonyl)piperidin-4-yl)amino)pyrimidine-5-carbonitrile] returned an IC50 of less than 50 nM.
`C[C@]1(O)CC[C@H](NCc2ccc(-n3cc(-c4nc(NC5CCN(S(=O)(=O)C6CC6)CC5)ncc4C#N)cn3)c(Cl)c2)CC1` [Example 284, 4-(1-(2-Chloro-4-((((1r,4r)-4-hydroxy-4-methylcyclohexyl)amino)methyl)phenyl)-1H-pyrazol-4-yl)-2-((1-(cyclopropylsulfonyl)piperidin-4-yl)amino)pyrimidine-5-carbonitrile] returned an IC50 of less than 50 nM.
`C[C@]1(O)C[C@@H](NCc2ccc(-n3cc(-c4nc(NC5CCN(S(=O)(=O)C6CC6)CC5)ncc4C#N)cn3)c(Cl)c2)C1` [Example 285, 4-(1-(2-Chloro-4-((((1s,3s)-3-hydroxy-3-methylcyclobutyl)amino)methyl)phenyl)-1H-pyrazol-4-yl)-2-((1-(cyclopropylsulfonyl)piperidin-4-yl)amino)pyrimidine-5-carbonitrile] displayed an IC50 of less than 50 nM.
The compound `C[C@]1(O)C[C@H](NCc2ccc(-n3cc(-c4nc(NC5CCN(S(=O)(=O)C6CC6)CC5)ncc4C#N)cn3)c(Cl)c2)C1` [Example 286, 4-(1-(2-Chloro-4-((((1r,3r)-3-hydroxy-3-methylcyclobutyl)amino)methyl)phenyl)-1H-pyrazol-4-yl)-2-((1-(cyclopropylsulfonyl)piperidin-4-yl)amino)pyrimidine-5-carbonitrile] showed an IC50 of less than 50 nM.
Still for that read-out and setting: to `CS(=O)(=O)N1CCC(Nc2ncc(C#N)c(-c3cnn(-c4ccc(CN[C@@H]5CCCC[C@H]5CO)cc4Cl)c3)n2)CC1` [Example 288] belongs less than 50 nM; to `CS(=O)(=O)N1CCC(Nc2ncc(C#N)c(-c3cnn(-c4ccc(CN[C@H]5CC[C@@H](CO)CC5)cc4Cl)c3)n2)CC1` [Example 289, 4-(1-(2-chloro-4-((((1s,4s)-4-(hydroxymethyl)cyclohexyl)amino)methyl)phenyl)-1H-pyrazol-4-yl)-2-((1-(methylsulfonyl)piperidin-4-yl)amino)pyrimidine-5-carbonitrile], less than 50 nM.
The same measure, in the same setting: the result for `CS(=O)(=O)N1CCC(Nc2ncc(C#N)c(-c3cnn(-c4ccc(CNCCN5CCS(=O)(=O)CC5)cc4Cl)c3)n2)CC1` [Example 290, 4-(1-(2-Chloro-4-(((2-(1,1-dioxidothiomorpholino)ethyl)amino)methyl)phenyl)-1H-pyrazol-4-yl)-2-((1-(methylsulfonyl)piperidin-4-yl)amino)pyrimidine-5-carbonitrile] reads less than 50 nM.
Same read-out and setting: to `C[C@@H](O)CNCc1ccc(-n2cc(-c3nc(NC4CCN(S(C)(=O)=O)CC4)ncc3C#N)cn2)c(Cl)c1` [Example 291, (R)-4-(1-(2-Chloro-4-(((2-hydroxypropyl)amino)methyl)phenyl)-1H-pyrazol-4-yl)-2-((1-(methylsulfonyl)piperidin-4-yl)amino)pyrimidine-5-carbonitrile] belongs less than 50 nM; to `C[C@H](O)CNCc1ccc(-n2cc(-c3nc(NC4CCN(S(C)(=O)=O)CC4)ncc3C#N)cn2)c(Cl)c1` [Example 292, (S)-4-(1-(2-Chloro-4-(((2-hydroxypropyl)amino)methyl)phenyl)-1H-pyrazol-4-yl)-2-((1-(methylsulfonyl)piperidin-4-yl)amino)pyrimidine-5-carbonitrile], less than 50 nM.
